Data published in patent US20230399312A1, “SUBSTITUTED PYRIMIDINES AND METHODS OF USE” (THERAVANCE BIOPHARMA R&D IP, LLC, priority 2020, published 2023).

Key:
[1] = target: T1, recombinant human ALK5 (TGF-βR1) protein (Homo sapiens, UniProt P36897); assay: Biochemical ALK5 (TGF-βR1) assay to measure pKi (LANCE Ultra ULight kinase assay); details: apparent pKi, converted from pIC50 by Cheng-Prusoff
T1 construct: purchased Life Technologies PR9075A
T1 sequence (P36897 34-503): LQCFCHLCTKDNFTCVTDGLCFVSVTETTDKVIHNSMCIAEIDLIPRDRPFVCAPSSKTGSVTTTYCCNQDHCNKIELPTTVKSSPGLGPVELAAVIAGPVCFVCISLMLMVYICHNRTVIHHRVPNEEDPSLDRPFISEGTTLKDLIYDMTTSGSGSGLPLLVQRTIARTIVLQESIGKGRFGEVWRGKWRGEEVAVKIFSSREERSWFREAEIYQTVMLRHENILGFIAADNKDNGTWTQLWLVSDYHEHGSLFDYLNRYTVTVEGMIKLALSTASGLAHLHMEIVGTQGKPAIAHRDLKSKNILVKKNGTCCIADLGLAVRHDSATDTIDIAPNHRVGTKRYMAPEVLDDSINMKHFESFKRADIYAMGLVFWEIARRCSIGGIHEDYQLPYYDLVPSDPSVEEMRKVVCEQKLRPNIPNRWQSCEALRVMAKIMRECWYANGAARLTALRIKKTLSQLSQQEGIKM
Summary of the method: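 Enzyme preincubated with compound for 60 min at room temperature, then reacted with ATP (125 μM as 5× stock) for 60 min at 37 °C. Stopped with EDTA plus Eu-anti-phospho-Topoisomerase 2-alpha (Thr1342) antibody and read by TR-FRET at 665 nm. pIC50 from a 4-parameter fit, converted to pKi by Cheng-Prusoff.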

[2] = test system: TGF-β-stimulated SMAD3 phosphorylation in BEAS-2B cells; assay: Cellular ALK5 potency assay, inhibition of TGF-β stimulated pSMAD3 formation in BEAS-2B cells; type: cell-based; details: Homo sapiens, pSMAD3, TGF-β 10 ng/mL, read-out: BEAS2B pIC50 (converted)
Summary of the method: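 Read-out is AlphaLISA detection of phospho-SMAD3 in lysates of BEAS-2B human lung epithelial cells. Cells are exposed to compound for 1 hour, then to 10 ng/mL TGF-β (final) for 30 minutes. Values are pIC50 from concentration–response curves.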

SMILES	Ki [1]	IC50 [2]
Cc1cccc(-c2nccc(Nc3ccnc(Nc4csc(C(=O)OC[C@@H]5CCCN5)c4)n3)n2)n1 [Compound 637, [(2S)-pyrrolidin-2-yl]methyl 4-[[4-[[2-(6-methyl-2-pyridyl)pyrimidin-4-yl]amino]pyrimidin-2-yl]amino]thiophene-2-carboxylate]	0.0398 to 0.316 nM	25.1 to 158 nM
Cc1cccc(-c2nccc(Nc3ccnc(Nc4csc(C(=O)O[C@H]5C[C@H](N)C5)c4)n3)n2)n1 [Compound 638, (3-aminocyclobutyl) 4-[[4-[[2-(6-methyl-2-pyridyl)pyrimidin-4-yl]amino]pyrimidin-2-yl]amino]thiophene-2-carboxylate]	0.0398 to 0.316 nM	25.1 to 158 nM
Cc1cccc(-c2nccc(Nc3ccnc(Nc4csc(C(=O)OC[C@@H]5CCCCN5)c4)n3)n2)n1 [Compound 639, [(2S)-2-piperidyl]methyl 4-[[4-[[2-(6-methyl-2-pyridyl)pyrimidin-4-yl]amino]pyrimidin-2-yl]amino]thiophene-2-carboxylate]	0.0398 to 0.316 nM	25.1 to 158 nM
Cc1cccc(-c2nccc(Nc3ccnc(Nc4cncc(C(=O)OC[C@H]5CCCCN5)c4)n3)n2)n1 [Compound 641, [(2R)-2-piperidyl]methyl 5-[[4-[[2-(6-methyl-2-pyridyl)pyrimidin-4-yl]amino]pyrimidin-2-yl]amino]pyridine-3-carboxylate]	0.398 to 3.16 nM	25.1 to 158 nM
Cc1cccc(-c2nccc(Nc3ccnc(Nc4cncc(CN5CC(C(=O)O[C@@H]6CCNC6)C5)c4)n3)n2)n1 [Compound 642, [(3R)-pyrrolidin-3-yl] 1-[[5-[[4-[[2-(6-methyl-2-pyridyl)pyrimidin-4-yl]amino]pyrimidin-2-yl]amino]-3-pyridyl]methyl]azetidine-3-carboxylate]	0.0398 to 0.316 nM	25.1 to 158 nM
Cc1cccc(-c2cccc(Nc3ccnc(Nc4ccc(N5CCOCC5)cc4)n3)n2)n1 [Compound 1000, N4-[6-(6-methyl-2-pyridyl)-2-pyridyl]-N2-(4-morpholinophenyl)pyrimidine-2,4-diamine]	3.98 to 31.6 nM	25.1 to 158 nM
Cc1cccc(-c2cc(Nc3ccnc(Nc4ccc(N5CCOCC5)cc4)n3)c3cc[nH]c3n2)n1 [Compound 1001, N4-[6-(6-methyl-2-pyridyl)-1H-pyrrolo[2,3-b]pyridin-4-yl]-N2-(4-morpholinophenyl)pyrimidine-2,4-diamine]	0.398 to 3.16 nM	200 to 1260 nM
Cc1cccc(-c2nc(Nc3ccnc(Nc4ccc(N5CCOCC5)cc4)n3)ccc2C#N)n1 [Compound 1003, 2-(6-methyl-2-pyridyl)-6-[[2-(4-morpholinoanilino)pyrimidin-4-yl]amino]pyridine-3-carbonitrile]	3.98 to 31.6 nM	200 to 1260 nM
CCNC(=O)Cc1cc(Nc2ccnc(Nc3ccc(N4CCNCC4)cc3)n2)nc(-c2cccc(C)n2)n1 [Compound 1006, N-ethyl-2-[2-(6-methyl-2-pyridyl)-6-[[2-(4-piperazin-1-ylanilino)pyrimidin-4-yl]amino]pyrimidin-4-yl] acetamide]	0.398 to 3.16 nM	200 to 1260 nM
Cc1cccc(-c2nc(CC(=O)NCC(C)C)cc(Nc3ccnc(Nc4ccc(N5CCNCC5)cc4)n3)n2)n1 [Compound 1009, N-isobutyl-2-[2-(6-methyl-2-pyridyl)-6-[[2-(4-piperazin-1-ylanilino)pyrimidin-4-yl]amino]pyrimidin-4-yl] acetamide]	0.398 to 3.16 nM	200 to 1260 nM
COC(=O)c1cc(Nc2ccnc(Nc3ccc(N4CCN(C)CC4)cc3)n2)nc(-c2cccc(C)n2)n1 [Compound 1010, methyl 6-[[2-[4-(4-methylpiperazin-1-yl)anilino]pyrimidin-4-yl]amino]-2-(6-methyl-2-pyridyl)pyrimidine-4-carboxylate]	0.0398 to 0.316 nM	200 to 1260 nM
Cc1cccc(-c2nc(Nc3ccnc(Nc4ccc(N5CCNCC5)cc4)n3)cc(-c3c[nH]nn3)n2)n1 [Compound 1012, N4-[2-(6-methyl-2-pyridyl)-6-(1H-triazol-4-yl)pyrimidin-4-yl]-N2-(4-piperazin-1-ylphenyl)pyrimidine-2,4-diamine]	0.0398 to 0.316 nM	1580 to 10000 nM
Fc1ccc(Cl)cc1-c1ncc(C2CC2)c(Nc2ccnc(Nc3ccc(N4CCNCC4)cc3)n2)n1 [Compound 1013, N4-[2-(5-chloro-2-fluoro-phenyl)-5-cyclopropyl-pyrimidin-4-yl]-N2-(4-piperazin-1-ylphenyl)pyrimidine-2,4-diamine]	0.0398 to 0.316 nM	200 to 1260 nM
Cc1cccc(-c2nc(Nc3ccnc(Nc4ccc(N)cc4)n3)c3cccn3n2)n1 [Compound 1015, N2-(4-aminophenyl)-N4-[2-(6-methyl-2-pyridyl)pyrrolo[2,1-f][1,2,4]triazin-4-yl]pyrimidine-2,4-diamine]	0.0398 to 0.316 nM	25.1 to 158 nM
Cc1cccc(-c2nc(Nc3ccnc(Nc4ccc(NCC5CNC5)cc4)n3)c3cccn3n2)n1 [Compound 1016, N2-[4-(azetidin-3-ylmethylamino)phenyl]-N4-[2-(6-methyl-2-pyridyl)pyrrolo[2,1-f][1,2,4]triazin-4-yl]pyrimidine-2,4-diamine]	0.0398 to 0.316 nM	25.1 to 158 nM
Cc1cccc(-c2nc(Nc3ccnc(Nc4cccc(C(=O)O)c4)n3)c3cccn3n2)n1 [Compound 1017, 3-[[4-[[2-(6-methyl-2-pyridyl)pyrrolo[2,1-f][1,2,4]triazin-4-yl]amino]pyrimidin-2-yl]amino]benzoic acid]	0.398 to 3.16 nM	200 to 1260 nM
Cc1cccc(-c2nc(Nc3ccnc(Nc4ccc(CC(=O)O)cc4)n3)c3cccn3n2)n1 [Compound 1018, 2-[4-[[4-[[2-(6-methyl-2-pyridyl)pyrrolo[2,1-f][1,2,4]triazin-4-yl]amino]pyrimidin-2-yl]amino]phenyl]acetic acid]	0.0398 to 0.316 nM	25.1 to 158 nM
COC(=O)Cc1ccc(Nc2nccc(Nc3nc(-c4cccc(C)n4)nn4cccc34)n2)cc1 [Compound 1019, methyl 2-[4-[[4-[[2-(6-methyl-2-pyridyl)pyrrolo[2,1-f][1,2,4]triazin-4-yl]amino]pyrimidin-2-yl]amino]phenyl]acetate]	0.398 to 3.16 nM	200 to 1260 nM
Cc1cccc(-c2nc(Nc3ccnc(Nc4ccc(C(=O)O)cn4)n3)c3cccn3n2)n1 [Compound 1020]	3.98 to 31.6 nM	200 to 1260 nM
Cc1cccc(-c2nc(Nc3ccnc(Nc4ccc(C(=O)O)cc4)n3)c3cccn3n2)n1 [Compound 1021, 4-[[4-[[2-(6-methyl-2-pyridyl)pyrrolo[2,1-f][1,2,4]triazin-4-yl]amino]pyrimidin-2-yl]amino]benzoic acid]	0.398 to 3.16 nM	25.1 to 158 nM
Cc1cccc(-c2nc(Nc3ccnc(Nc4nc(C(=O)O)cs4)n3)c3cccn3n2)n1 [Compound 1022, 2-[[4-[[2-(6-methyl-2-pyridyl)pyrrolo[2,1-f][1,2,4]triazin-4-yl]amino]pyrimidin-2-yl]amino]thiazole-4-carboxylic acid]	0.398 to 3.16 nM	200 to 1260 nM
Cc1cccc(-c2nc(Nc3ccnc(Nc4csc(C(=O)O)c4)n3)c3cccn3n2)n1 [Compound 1023, 4-[[4-[[2-(6-methyl-2-pyridyl)pyrrolo[2,1-f][1,2,4]triazin-4-yl]amino]pyrimidin-2-yl]amino]thiophene-2-carboxylic acid]	0.398 to 3.16 nM	200 to 1260 nM
COC(=O)c1ccc(Nc2nccc(Nc3nc(-c4cccc(C)n4)nn4cccc34)n2)cn1 [Compound 1024, methyl 5-[[4-[[2-(6-methyl-2-pyridyl)pyrrolo[2,1-f][1,2,4]triazin-4-yl]amino]pyrimidin-2-yl]amino]pyridine-2-carboxylate]	0.0398 to 0.316 nM	25.1 to 158 nM
Cc1cccc(-c2nc(Nc3ccnc(Nc4cc(C(=O)O)cs4)n3)c3cccn3n2)n1 [Compound 1025, 5-[[4-[[2-(6-methyl-2-pyridyl)pyrrolo[2,1-f][1,2,4]triazin-4-yl]amino]pyrimidin-2-yl]amino]thiophene-3-carboxylic acid]	0.0398 to 0.316 nM	25.1 to 158 nM
Cc1cccc(-c2nc(Nc3ccnc(Nc4ccc(NC(=O)C5CNC5)cc4)n3)c3cccn3n2)n1 [Compound 1026, N-[4-[[4-[[2-(6-methyl-2-pyridyl)pyrrolo[2,1-f][1,2,4]triazin-4-yl]amino]pyrimidin-2-yl]amino]phenyl]azetidine-3-carboxamide]	0.0398 to 0.316 nM	25.1 to 158 nM
Cc1cccc(-c2nc(Nc3ccnc(Nc4ccc(NC(=O)C5CCNC5)cc4)n3)c3cccn3n2)n1 (stereo not drawn) [Compound 1027, N-[4-[[4-[[2-(6-methyl-2-pyridyl)pyrrolo[2,1-f][1,2,4]triazin-4-yl]amino]pyrimidin-2-yl]amino]phenyl]pyrrolidine-3-carboxamide]	0.0398 to 0.316 nM	25.1 to 158 nM
Cc1cccc(-c2nc(Nc3ccnc(Nc4ccc(NC(=O)C5CCNCC5)cc4)n3)c3cccn3n2)n1 [Compound 1028, N-[4-[[4-[[2-(6-methyl-2-pyridyl)pyrrolo[2,1-f][1,2,4]triazin-4-yl]amino]pyrimidin-2-yl]amino]phenyl]piperidine-4-carboxamide]	0.0398 to 0.316 nM	25.1 to 158 nM
